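Five concentrations, 48 hours, 96-well plates. GI50: concentration for 50% inhibition of growth. At the TGI there is no net growth.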
Assays:
Experiment in all cases: NCI-60 cell line screen, 48 h
K-562 leukemia = tested on: K-562 leukemia
HCT-116 colon = tested on: HCT-116 colon
NCI-H226 lung = tested on: NCI-H226 lung
ACHN renal = tested on: ACHN renal
SF-539 CNS = tested on: SF-539 CNS
PC-3 prostate = tested on: PC-3 prostate
RXF 393 renal = tested on: RXF 393 renal
IGROV1 ovarian = tested on: IGROV1 ovarian
OVCAR-3 ovarian = tested on: OVCAR-3 ovarian
HCT-15 colon = tested on: HCT-15 colon
SK-MEL-28 melanoma = tested on: SK-MEL-28 melanoma
MDA-MB-231 breast = tested on: MDA-MB-231 breast
CCRF-CEM leukemia = tested on: CCRF-CEM leukemia
T-47D breast = tested on: T-47D breast
NCI/ADR-RES ovarian = tested on: NCI/ADR-RES ovarian
MOLT-4 leukemia = tested on: MOLT-4 leukemia
BT-549 breast = tested on: BT-549 breast
OVCAR-8 ovarian = tested on: OVCAR-8 ovarian
UACC-62 melanoma = tested on: UACC-62 melanoma
NCI-H460 lung = tested on: NCI-H460 lung
HL-60(TB) leukemia = tested on: HL-60(TB) leukemia
SK-MEL-5 melanoma = tested on: SK-MEL-5 melanoma
SNB-19 CNS = tested on: SNB-19 CNS
UO-31 renal = tested on: UO-31 renal
SR leukemia = tested on: SR leukemia
M14 melanoma = tested on: M14 melanoma
DU-145 prostate = tested on: DU-145 prostate
MALME-3M melanoma = tested on: MALME-3M melanoma
UACC-257 melanoma = tested on: UACC-257 melanoma
MDA-MB-435 = tested on: MDA-MB-435
U251 CNS = tested on: U251 CNS
SN12C renal = tested on: SN12C renal
HS 578T breast = tested on: HS 578T breast
HCC-2998 colon = tested on: HCC-2998 colon
SF-268 CNS = tested on: SF-268 CNS
A498 renal = tested on: A498 renal
SF-295 CNS = tested on: SF-295 CNS
NCI-H522 lung = tested on: NCI-H522 lung
COLO 205 colon = tested on: COLO 205 colon
LOX IMVI melanoma = tested on: LOX IMVI melanoma
MCF7 breast = tested on: MCF7 breast
HT29 colon = tested on: HT29 colon
SNB-75 CNS = tested on: SNB-75 CNS
786-0 renal = tested on: 786-0 renal
TK-10 renal = tested on: TK-10 renal
A549 NSCLC = tested on: A549 NSCLC
SW-620 colon = tested on: SW-620 colon
NCI-H23 lung = tested on: NCI-H23 lung
OVCAR-5 ovarian = tested on: OVCAR-5 ovarian
HOP-92 NSCLC = tested on: HOP-92 NSCLC
SK-OV-3 ovarian = tested on: SK-OV-3 ovarian
KM12 colon = tested on: KM12 colon
HOP-62 NSCLC = tested on: HOP-62 NSCLC
CAKI-1 renal = tested on: CAKI-1 renal
SK-MEL-2 melanoma = tested on: SK-MEL-2 melanoma

CCC(=O)Oc1cc(/C=C/C(=O)O[C@H]2C[C@H]3CN4CCc5c([nH]c6cc(OC)ccc56)[C@@H]4C[C@@H]3[C@@H](C(=O)OC)[C@@H]2OC)ccc1OC
GI50 (K-562 leukemia): 4.06 µM | TGI (K-562 leukemia): > 100 µM | GI50 (HCT-116 colon): 9.11 µM | TGI (HCT-116 colon): 78.9 µM | GI50 (NCI-H226 lung): 11.8 µM | TGI (NCI-H226 lung): > 100 µM | GI50 (ACHN renal): 5.34 µM | TGI (ACHN renal): > 100 µM | GI50 (SF-539 CNS): 12.3 µM | TGI (SF-539 CNS): 30.9 µM | GI50 (PC-3 prostate): 15 µM | TGI (PC-3 prostate): > 100 µM | GI50 (RXF 393 renal): 3.68 µM | TGI (RXF 393 renal): 17.4 µM | GI50 (IGROV1 ovarian): 14.1 µM | TGI (IGROV1 ovarian): 75.8 µM | GI50 (OVCAR-3 ovarian): 7.3 µM | TGI (OVCAR-3 ovarian): 67.5 µM | GI50 (HCT-15 colon): 5.7 µM | TGI (HCT-15 colon): 23.8 µM | GI50 (SK-MEL-28 melanoma): 13.6 µM | TGI (SK-MEL-28 melanoma): 35.2 µM | GI50 (MDA-MB-231 breast): 5 µM | TGI (MDA-MB-231 breast): 28.4 µM | GI50 (CCRF-CEM leukemia): 3.75 µM | TGI (CCRF-CEM leukemia): > 100 µM | GI50 (T-47D breast): 10.8 µM | TGI (T-47D breast): 41.2 µM | GI50 (NCI/ADR-RES ovarian): 20.5 µM | TGI (NCI/ADR-RES ovarian): > 100 µM | GI50 (MOLT-4 leukemia): 3.87 µM | TGI (MOLT-4 leukemia): > 100 µM | GI50 (BT-549 breast): 7.53 µM | TGI (BT-549 breast): 62.4 µM | GI50 (OVCAR-8 ovarian): 19.7 µM | TGI (OVCAR-8 ovarian): > 100 µM | GI50 (UACC-62 melanoma): 12.1 µM | TGI (UACC-62 melanoma): 29.5 µM | GI50 (NCI-H460 lung): 28.6 µM | TGI (NCI-H460 lung): > 100 µM | GI50 (HL-60(TB) leukemia): 3.7 µM | TGI (HL-60(TB) leukemia): 26.9 µM | GI50 (SK-MEL-5 melanoma): 13 µM | TGI (SK-MEL-5 melanoma): 28.5 µM | GI50 (SNB-19 CNS): 22.4 µM | TGI (SNB-19 CNS): > 100 µM | GI50 (UO-31 renal): 4.82 µM | TGI (UO-31 renal): > 100 µM | GI50 (SR leukemia): 2.27 µM | TGI (SR leukemia): > 100 µM | GI50 (M14 melanoma): 13.1 µM | TGI (M14 melanoma): > 100 µM | GI50 (DU-145 prostate): 18 µM | TGI (DU-145 prostate): > 100 µM | GI50 (MALME-3M melanoma): 6.75 µM | TGI (MALME-3M melanoma): 29 µM | GI50 (UACC-257 melanoma): 15 µM | TGI (UACC-257 melanoma): > 100 µM | GI50 (MDA-MB-435): 12 µM | TGI (MDA-MB-435): 29.2 µM | GI50 (U251 CNS): 9.67 µM | TGI (U251 CNS): 88.1 µM | GI50 (SN12C renal): 12 µM | TGI (SN12C renal): > 100 µM | GI50 (HS 578T breast): 5.3 µM | TGI (HS 578T breast): > 100 µM | GI50 (HCC-2998 colon): 47.1 µM | TGI (HCC-2998 colon): > 100 µM | GI50 (SF-268 CNS): 14.1 µM | TGI (SF-268 CNS): > 100 µM | GI50 (A498 renal): 1.94 µM | TGI (A498 renal): 9.9 µM | GI50 (SF-295 CNS): 31 µM | TGI (SF-295 CNS): > 100 µM | GI50 (NCI-H522 lung): 16.2 µM | TGI (NCI-H522 lung): 33.6 µM | GI50 (COLO 205 colon): 4.57 µM | TGI (COLO 205 colon): 17.7 µM | GI50 (LOX IMVI melanoma): 13.1 µM | TGI (LOX IMVI melanoma): 55.1 µM | GI50 (MCF7 breast): 5.16 µM | TGI (MCF7 breast): 24.3 µM | GI50 (HT29 colon): 3.37 µM | TGI (HT29 colon): 11.9 µM | GI50 (SNB-75 CNS): 3.74 µM | TGI (SNB-75 CNS): 26.8 µM | GI50 (786-0 renal): 7.26 µM | TGI (786-0 renal): > 100 µM | GI50 (TK-10 renal): 14 µM | TGI (TK-10 renal): 45.1 µM | GI50 (A549 NSCLC): 21.6 µM | TGI (A549 NSCLC): > 100 µM | GI50 (SW-620 colon): 15.9 µM | TGI (SW-620 colon): > 100 µM | GI50 (NCI-H23 lung): 20.5 µM | TGI (NCI-H23 lung): > 100 µM | GI50 (OVCAR-5 ovarian): 40.4 µM | TGI (OVCAR-5 ovarian): > 100 µM | GI50 (HOP-92 NSCLC): 1.58 µM | TGI (HOP-92 NSCLC): 11.5 µM | GI50 (SK-OV-3 ovarian): 59 µM | TGI (SK-OV-3 ovarian): > 100 µM | GI50 (KM12 colon): 18.7 µM | TGI (KM12 colon): > 100 µM | GI50 (HOP-62 NSCLC): 25.2 µM | TGI (HOP-62 NSCLC): > 100 µM | GI50 (CAKI-1 renal): 3.22 µM | TGI (CAKI-1 renal): > 100 µM | GI50 (SK-MEL-2 melanoma): 17.6 µM | TGI (SK-MEL-2 melanoma): 36.6 µM
